# Measurements reported in patent publication US6825209B2, “Compounds having unique CB1 receptor binding selectivity and methods for their production and use” (Research Triangle Institute, priority 2002, dated 2004).
# Where “and” joins values, the source holds several entries; their conditions need not be identical. Equal entries are not always repeated. Where two headings read alike, the source gives them in different places.
# Experiments:
# [1] = biological target: T1, G-protein-linked cannabinoid receptors (Rattus norvegicus, UniProt P20272); test: GTP-γ-[35S] binding in whole rat brain; format: biochemical; conditions: for Emax: read-out: Emax, GTP-γ-[35S] in Whole Rat Brain; for EC50: inverse agonist/antagonist activity
# T1 construct: tissue Charles River or Pel-Freez Biologicals; host or cells: whole rat brain crude membrane homogenate
# Description: Cannabinoid receptor-mediated alteration in GTP-γ-[^35S] binding.
# Introduction. The purpose of this assay was to characterize the functional activity of lead compounds identified by the radioligand competition binding assays described above. Data from the GTP-γ-[^35S] binding assay was used to determine if a compound was an agonist, antagonist or inverse agonist at G-protein-linked cannabinoid receptors. Agonist binding to a G-protein-linked receptor results in an increased affinity of the G-protein α-subunit for GTP relative to GDP. Eventually, an active αGTP complex forms to complete the stimulus-effector coupling. The α-subunit has intrinsic GTPase activity which generates a free α-subunit which can recombine with the β- and γ-subunits readying the G-protein for another signal transduction cycle. In the current assay, GTP-γ-[^35S] cannot be hydrolyzed by the α-subunit. Thus, the amount of bound GTP-γ-[^35S] is a marker for G-protein activation. In this assay, an agonist increases basal GTP-γ-[^35S] binding, an inverse agonist decreases basal binding and basal binding would be unaffected by an antagonist.
# Experimental Design. The specific binding of GTP-γ-[^35S], in the absence of test compound, was termed “basal” activity. Test compounds were characterized as agonist, antagonist, or inverse agonist based on their effect on basal activity. […] The concentrations spanned two orders of magnitude because affinity may not be related to efficacy. […] Effects of the test compounds are reported as the percent change from basal. More thorough dose-response analysis may be run to determine, for example, if a compound is a full or partial agonist.
# Methods. […] In a final volume of 0.5 mL, each assay tube contained: 0.02 mg crude membrane homogenate (0.1 mL), 200 μM GDP (0.05 mL; to reduce basal G-protein activity), 0.1 nM GTP-γ-[^35S] (0.05 mL) and several concentrations of test compound (0.05 mL) or an equivalent volume of vehicle (used for determination of total binding). Nonspecific binding was determined in the presence of 100 μM unlabeled GTP-γ-S (0.05 mL). Duplicate samples were incubated for 1 h at 30° C. Since this assay is amenable for use with high throughput screening methods, the binding assays were run using a 96-well plate format. Specific binding was calculated as total binding-nonspecific binding.
# cannabinoid receptors = biological target: T2, cannabinoid receptors (Mus musculus, UniProt P47746); test: Mouse vas deferens tissue assay (WIN55212-2 as agonist); conditions: for % Inverse Effect: in the absence of WIN55212-2; for Dextral Shift: shift of the WIN55212-2 dose response curve
# T2 construct: mediated by cannabinoid receptors located on prejunctional neurones; from tissue; host or cells: mouse isolated vas deferens
# Description: Pharmacological characterization in isolated mouse vas deferens.
# Introduction. The mouse isolated vas deferens can be used to determine both the potency and efficacy (maximum degree of inhibition produced) of cannabinoid receptor agonists. Because of its high sensitivity, this assay usually requires only microgram quantities of test material.
# The inhibitory effect of cannabinoids on electrically evoked contractions is thought to be mediated by cannabinoid receptors located on prejunctional neurones rather than on the smooth muscle.
# Experimental design. Isolated mouse vasa deferentia were used to determine the potency and efficacy of test compounds as inhibitors of electrically evoked contractions. […] Ability to antagonize was expressed in terms of the association constant (Kb) for the forward reaction between antagonist and cannabinoid receptors.
# Methods. […] Electrical field stimulation was between platinum electrodes located at the upper and lower ends of each bath. The stimuli were generated by a Grass S48 stimulator, then amplified (Med-Lab channel attenuator) and finally divided to yield separate outputs to four organ baths (Med-Lab Stimusplitter). All contractions were recorded isometrically.
# Concentration-response curves were constructed cumulatively.
# CB1 versus CB2 receptors = test: Relative selectivity of the analogs for CB1 versus CB2 receptors; conditions: CB1 versus CB2 binding, Tables 1, 6 and 7
# Description: Human CB2 receptor affinity. The relative selectivity of the analogs for CB1 versus CB2 receptors varied modestly regardless of the structural modifications examined to date.
# [2] = whole rat brain membranes, effects reported as percent change from basal
# [3] = whole rat brain membranes, read-out: EC50, GTP-γ-[35S] in Whole Rat Brain
# [4] = isolated mouse vas deferens, WIN55212-2 as agonist, Schild equation, read-out: Kb
# T2 sequence (P47746 whole entry): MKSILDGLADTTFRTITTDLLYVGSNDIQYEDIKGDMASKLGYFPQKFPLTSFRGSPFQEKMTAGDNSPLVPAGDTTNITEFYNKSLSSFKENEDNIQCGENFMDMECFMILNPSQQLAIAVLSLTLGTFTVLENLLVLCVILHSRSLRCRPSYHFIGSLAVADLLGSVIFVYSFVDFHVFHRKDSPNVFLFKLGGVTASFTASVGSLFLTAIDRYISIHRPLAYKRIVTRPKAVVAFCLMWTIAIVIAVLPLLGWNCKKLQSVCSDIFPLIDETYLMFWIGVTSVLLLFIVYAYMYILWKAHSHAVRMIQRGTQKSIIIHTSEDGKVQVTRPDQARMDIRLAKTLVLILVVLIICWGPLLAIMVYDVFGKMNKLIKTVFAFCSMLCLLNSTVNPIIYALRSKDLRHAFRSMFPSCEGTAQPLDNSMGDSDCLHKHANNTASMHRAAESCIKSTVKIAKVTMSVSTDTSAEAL
# T1 sequence (P20272 whole entry): as the sequence (P47746 whole entry) above, with D95E counted along it
Compound,"Emax [1, 2]","EC50 [1, 3]",Kb (cannabinoid receptors; [4]),% Inverse Effect (cannabinoid receptors; isolated mouse vas deferens),Dextral Shift (cannabinoid receptors; isolated mouse vas deferens),CB1 selectivity (CB1 versus CB2) (CB1 versus CB2 receptors),"EC50 ([1]; EC50, GTP-γ-[35S] in Whole Rat Brain, whole rat brain membranes)",Emax [1],Kb (cannabinoid receptors),"Kb (cannabinoid receptors; isolated mouse vas deferens, WIN55212-2 as agonist, Schild equation)","Dextral Shift (cannabinoid receptors; isolated mouse vas deferens, listed as heptyl analog)"
Cc1c(C(=O)NN2CCOCC2)nn(-c2ccc(Cl)cc2Cl)c1-c1ccc(Cl)cc1 [MF9725-33D],-76.3%,38.9 µM,0.0125 µM,82.5%,26.3,,,,,,
CCCCCCNC(=O)c1nn(-c2ccc(Cl)cc2Cl)c(-c2ccc(Cl)cc2)c1C [MF9725-132-25],-13%,29.4 µM,0.0154 µM,30.1%,no effect,,,,,,
CCCCCCCNC(=O)c1nn(-c2ccc(Cl)cc2Cl)c(-c2ccc(Cl)cc2)c1C [MF9725-133-25],,,,50.6% and 37.8%,,,213 µM,-20%,0.0839 µM,no effect,failed to produce an effect
Cc1c(C(=O)NC2CCCCC2)nn(-c2ccc(Cl)cc2Cl)c1-c1ccc(Cl)cc1 [MF9725-66-11],-22.1%,26 µM,0.0012 µM,55.5%,26.7,93 fold,,,,,
Cc1c(C(=O)NC(C)C)nn(-c2ccc(Cl)cc2Cl)c1-c1ccc(Cl)cc1 [MF9725-65-11],-46.4%,16 µM,,,,,,,,,

# Further molecules by falling EC50 [1, 3], results first:
"Emax [1, 2]","EC50 [1, 3]",Kb (cannabinoid receptors; [4]),% Inverse Effect (cannabinoid receptors; isolated mouse vas deferens),Dextral Shift (cannabinoid receptors; isolated mouse vas deferens),CB1 selectivity (CB1 versus CB2) (CB1 versus CB2 receptors),Compound,"EC50 ([1]; EC50, GTP-γ-[35S] in Whole Rat Brain, whole rat brain membranes)",Emax [1],Kb (cannabinoid receptors),"Kb (cannabinoid receptors; isolated mouse vas deferens, WIN55212-2 as agonist, Schild equation)","Dextral Shift (cannabinoid receptors; isolated mouse vas deferens, listed as heptyl analog)"
-38.5%,8.54 µM,0.0212 µM,28.2%,no effect,,CCCCNC(=O)c1nn(-c2ccc(Cl)cc2Cl)c(-c2ccc(Cl)cc2)c1C [MF9725-64-17],,,,,
-11%,7.54 µM,,,,,Cc1c(C(=O)NCC(C)C)nn(-c2ccc(Cl)cc2Cl)c1-c1ccc(Cl)cc1 [MF9725-68-10],,,,,
